Laboratory results from patent publication US20160270410A1, “INSECTICIDAL COMPOSITIONS AND METHODS OF USING THE SAME” (Clarke Mosquito Control Products, Inc., priority 2011, published 2016).

Test system: 3rd instar Aedes aegypti
Assay: Laboratory bioassay in larval trays, larvicide surface film, Aedes aegypti
Assay type: in vivo
Conditions: components of Sample 42 tested neat, rate 663 μL, 21° C.
Procedure: Laboratory Bioassay Method. All larvae were reared on a diet of ground TETRAMIN® fish food (Tetra, Blacksburg, Va.) in an insectary maintained at 30° C. and 45% relative humidity (RH). Mainly third instars of Aedes aegypti were used for the laboratory container experiments. Anopheles quadrimaculatus and Culex quinquefasciatus were also tested where indicated.
Laboratory bioassays were conducted in […] plastic larval trays (laboratory containers). Each tray was filled with 27 liters of de-chlorinated water and received 50 healthy third instar larvae. The temperature of the water during most of the studies was 21° C. Additional testing was done at a water temperature of 15.6° C. and 28° C. Treatments were applied at a rate of 3 gal/acre or 663 μL/tray with an Eppendorf pipette. During the experimental period larvae were fed ground TETRAMIN® fish food (Tetra, Blacksburg, Va.) that was blended with water before introduction into the water of the larval tray to prevent flotation and thus interference with the surface film being tested.
Trays were scored for mortality at 1, 2, 4, 24, 48, and 72 hours following treatment introduction. At each time period the numbers of live and dead larvae were counted. […] Each treatment in the study was replicated three times using separate trays for each replication. A 95% mortality rate was considered acceptable for a commercial product.

ethoxylated tridecyl alcohol
% MORTALITY 24 HAT (24 HAT): 17% | % MORTALITY 48 HAT (48 HAT): 20% | % MORTALITY 72 HAT (72 HAT): 25%
